According to the Bradley open melting point set (2014):
“And” between values parts separate entries of the source, which are not always exact repeats. Equal values may be shown once.

melting point | Compound
168 °C | NNC(=O)c1ccc(Br)cc1 [4-bromobenzhydrazide]
253 °C | O=C(O)c1ccc(Br)cc1 [4-bromobenzoic acid]
299 °C | O=C(O)c1ccc(Br)c(C(=O)O)c1 [4-bromoisophthalic acid]
4 °C | CCOc1ccc(Br)cc1 [4-bromophenetole]
117 °C | O=C(O)Cc1ccc(Br)cc1 [4-bromophenylacetic acid]
39 °C | CSc1ccc(Br)cc1 [4-bromothioanisole]
100 °C | CCCCc1ccc(C(=O)O)cc1 [4-butylbenzoic_acid]
181 °C | OB(O)c1ccc(Cl)cc1C(F)(F)F [4-chloro-2-(trifluoromethyl)benzeneboronic acid]
46 °C | COc1ccc(Cl)cc1I [4-chloro-2-iodoanisole]
122 °C | Cc1cc(Cl)cc([N+](=O)[O-])c1N [4-chloro-2-methyl-6-nitroaniline]
214 °C | Cc1cc(C(=O)O)ccc1Cl [4-chloro-3-methylbenzoic acid]
44 °C | COc1ccc(Cl)c([N+](=O)[O-])c1 [4-chloro-3-nitroanisole]
100 °C | N#Cc1ccc(Cl)c([N+](=O)[O-])c1 [4-chloro-3-nitrobenzonitrile]
97 °C | Clc1cc(N2CCCC2)ncn1 [4-chloro-6-(1-pyrrolidinyl)pyrimidine]
139 °C | CCc1nc(N)nc(Cl)c1C [4-chloro-6-ethyl-5-methylpyrimidin-2-amine]
278 °C | ON=C(Cl)c1ccc(Cl)cc1 [4-chloro-N-hydroxybenzenecarboximidoyl chloride]
46 °C and 48.5 °C and 47 °C | O=Cc1ccc(Cl)cc1 [4-chlorobenzaldehyde]
71 °C | OCc1ccc(Cl)cc1 [4-chlorobenzyl alcohol]
105 °C | O=C(O)Cc1ccc(Cl)cc1 [4-chlorophenylacetic acid]
107 °C | Oc1ccc(Cl)c(O)c1 [4-chlororesorcinol]
40 °C | OC1CCOc2ccccc21 (stereo unspecified) [4-chromanol]
31 °C | CCCCCCCc1ccc(-c2ccc(C#N)cc2)cc1 [4-cyano-4'-n-heptylbiphenyl]

melting point | Compound
227 °C | N#Cc1ccc(C(N)=O)cc1 [4-cyanobenzamide]
120 °C | N#Cc1ccc(N=C=S)cc1 [4-cyanophenyl isothiocyanate]
54 °C | Nc1ccc(C2CCCCC2)cc1 [4-cyclohexylaniline]
220 °C | OB(O)c1ccc(C2CCCCC2)cc1 [4-cyclohexylbenzeneboronic acid]
96 °C | CCN(CC)c1ccc(C=NO)cc1 [4-diethylaminobenzaldoxime]
136 °C | CN(C)c1ccc(/C=C/C=O)cc1 [4-dimethylamino cinnamaldehyde]
74.5 °C | CN(C)c1ccc(C=O)cc1 [4-dimethylaminobenzaldehyde]
14 °C | CCOc1ccc(C=O)cc1 [4-ethoxybenzaldehyde]
62 °C | CCOc1ccc(C#N)cc1 [4-ethoxybenzonitrile]
43 °C | CCC1=C(C)N=NC1C (stereo unspecified) [4-ethyl-3,5-dimethyl-1H-pyrazole]
152 °C | CCc1ccc(B(O)O)cc1 [4-ethylbenzeneboronic acid]
47 °C | CCc1ccc(O)cc1 [4-ethylphenol]
93 °C | CCc1ccc(OCC(=O)O)cc1 [4-ethylphenoxyacetic acid]
71 °C | N#Cc1ccc(F)cc1[N+](=O)[O-] [4-fluoro-2-nitrobenzonitrile]
75 °C | O=[N+]([O-])c1cc(F)ccc1O [4-fluoro-2-nitrophenol]
34 °C | Cc1cc(N)ccc1F [4-fluoro-3-methylaniline]
106 °C | Cc1cc(CC(=O)O)ccc1F [4-fluoro-3-methylphenylacetic acid]
60 °C | O=S(=O)(Cl)Cc1ccc(F)cc1 [4-fluoro-alpha-toluenesulfonyl chloride]
263 °C | OB(O)c1ccc(F)cc1 [4-fluorobenzeneboronic acid]
37 °C | O=S(=O)(Cl)c1ccc(F)cc1 [4-fluorobenzenesulfonyl chloride]
36 °C | N#Cc1ccc(F)cc1 [4-fluorobenzonitrile]
91 °C | N#CCS(=O)(=O)c1ccc(F)cc1 [4-fluorophenylsulfonylacetonitrile]

melting point | Compound
188 °C | O=C(O)c1ccc(F)cc1O [4-fluorosalicylic acid]
201 °C | O=Cc1ccc(B(O)O)cc1C(F)(F)F [4-formyl-3-(trifluoromethyl)benzeneboronic acid]
22 °C | O=CN1CCOCC1 [4-formylmorpholine]
196 °C | O=Cc1ccc(OCC(=O)O)cc1 [4-formylphenoxyacetic acid]
87 °C | COc1cc(C#N)ccc1O [4-hydroxy-3-methoxybenzonitrile]
114 °C | COc1cc(CO)ccc1O [4-hydroxy-3-methoxybenzyl alcohol]
207 °C | O=[N+]([O-])c1ccc(/C=C/c2ccc(O)cc2)cc1 [4-hydroxy-4'-nitrostilbene]
267 °C | Oc1ccnc2ccc(C(F)(F)F)cc12 [4-hydroxy-6-(trifluoromethyl)quinoline]
108 °C | CC(=O)c1ccc(O)cc1 [4-hydroxyacetophenone]
152 °C | O=C(O)Cc1ccc(O)cc1 [4-hydroxyphenylacetic acid]
50 °C | COc1ccc(I)cc1 [4-iodoanisole]
126 °C | N#Cc1ccc(I)cc1 [4-iodobenzonitrile]
34 °C | Cc1ccc(I)cc1 [4-iodotoluene]
14 °C | COc1ccc(N)c(C)c1 [4-methoxy-2-methylaniline]
127 °C | COc1ccc(N)c([N+](=O)[O-])c1 [4-methoxy-2-nitroaniline]
237 °C | COc1c(C)cc(B(O)O)cc1C [4-methoxy-3,5-dimethylbenzeneboronic acid]
188 °C | COc1ccc(C(=O)O)cc1[N+](=O)[O-] [4-methoxy-3-nitrobenzoic acid]
166 °C | COc1ccc(C(N)=O)cc1 [4-methoxybenzamide]
-10 °C | COc1ccc(CN)cc1 [4-methoxybenzylamine]
56 °C | COc1ccc(O)cc1 [4-methoxyphenol]
102 °C | COc1cc[n+]([O-])cc1 [4-methoxypyridine n-oxide]
141 °C | CCCCCCCCOc1ccc(NC(=O)c2ccc(C)cc2)cc1 [4-methyl-N-[4-(octyloxy)phenyl]benzamide]

melting point | Compound
61 °C | Cc1ccc(CO)cc1 [4-methylbenzyl_alcohol]
68 °C | Cc1ccc(O)c(O)c1 [4-methylcatechol]
5 °C | Cc1ccc(Cc2ccccc2)cc1 [4-methyldiphenylmethane]
126 °C | CC(=O)OCC1OC(Oc2ccc(C)cc2)C(OC(C)=O)C(OC(C)=O)C1OC(C)=O (stereo unspecified) [4-methylphenyl 2,3,4,6-tetra-O-acetylhexopyranoside]
185 °C | Cc1cc[n+]([O-])cc1C#N [4-methylpyridine-3-carbonitrile 1-oxide]
150 °C | CC(=O)Oc1ccc2c(C)cc(=O)oc2c1 [4-methylumbelliferyl acetate]
128 °C | CCCCc1ccc(C(N)=O)cc1 [4-n-butylbenzamide]
66 °C | CCCCCCc1ccc(O)cc1O [4-n-hexylresorcinol]
84 °C | CCCCCCCCCc1ccc(B(O)O)cc1 [4-n-nonylbenzeneboronic acid]
83 °C | CCCCCc1ccc(B(O)O)cc1 [4-n-pentylbenzeneboronic acid]
136 °C | Cc1c[n+]([O-])ccc1[N+](=O)[O-] [4-nitro-3-picoline n-oxide]
105 °C | O=Cc1ccc([N+](=O)[O-])cc1 [4-nitrobenzaldehyde]
164 °C | O=C(/C=C/c1ccc([N+](=O)[O-])cc1)c1ccccc1 [4-nitrochalcone]
112 °C | O=[N+]([O-])c1ccc(O)cc1 [4-nitrophenol] [listing 1 of 2 here]
112 °C and 113 °C | O=[N+]([O-])c1ccc(O)cc1 [4-nitrophenol] [listing 2 of 2 here]
143 °C | O=C(Oc1ccc([N+](=O)[O-])cc1)c1ccccc1 [4-nitrophenyl benzoate]
94 °C | O=C(CCl)Oc1ccc([N+](=O)[O-])cc1 [4-nitrophenyl chloroacetate]
58 °C | O=C=Nc1ccc([N+](=O)[O-])cc1 [4-nitrophenyl isocyanate]
116 °C | N#CCc1ccc([N+](=O)[O-])cc1 [4-nitrophenylacetonitrile]
161 °C | O=[N+]([O-])c1cc[n+]([O-])cc1 [4-nitropyridine n-oxide]

Compound | melting point
COc1cc(Cl)ccc1O [4-chloro-2-methoxyphenol] | 17 °C
N#Cc1ccc(Cl)cc1 [4-chlorobenzonitrile] | 92 °C
Clc1ccc(C(Cl)(Cl)Cl)cc1 [4-chlorobenzotrichloride] | 6 °C
FC(F)(F)c1ccc(Cl)cc1 [4-chlorobenzotrifluoride] | -36 °C
N#CCc1ccc(Cl)cc1 [4-chlorobenzyl_cyanide] | 31 °C
Clc1ccc(-c2ccccc2)cc1 [4-chlorobiphenyl] | 78 °C
O=[N+]([O-])c1ccc(Cl)cc1 [4-chloronitrobenzene] | 83.5 °C
O=C(Cl)c1ccc(F)cc1 [4-fluorobenzoyl chloride] | 10 °C
CC(C)c1ccc(O)cc1 [4-isopropylphenol] | 60 °C
COc1ccc(C=O)cc1 [4-methoxybenzaldehyde] | 1 °C
CCCCc1ccc(O)cc1 [4-n-butylphenol] | 22 °C
CCCCCCCc1ccc(O)cc1 [4-n-heptylphenol] | 27 °C
Nc1ccc([N+](=O)[O-])cc1N [4-nitro-o-phenylenediamine] | 201 °C
COc1ccc([N+](=O)[O-])cc1 [4-nitroanisole] | 52 °C
O=[N+]([O-])c1ccc(CCl)cc1 [4-nitrobenzyl chloride] | 72 °C
